# Experimental data: PubChem BioAssay AID2060897 (Molecular Pharmacology Branch, DTP, NCI, 2025)
# System: 966289-007-R4-J1-PDC complex spheroid viability
# Assay: Anticancer human tumor 966289-007-R4-J1-PDC patient-derived pancreatic adenocarcinoma cell line growth inhibition [RAS]
# Details: for IC50: curve of first compound; for viability, T/C: stronger effect = lower value
# Excerpt: RAS pathway inhibitors in Combinations in Complex Spheroids
# A high-throughput screen of multi-cell type tumor spheroids was designed to identify active combinations of RAS pathway inhibitors and targeted small molecules. Complex spheroids include a stromal component modeled by human endothelial cells (HUVEC) and fibroblasts modeled by human mesenchymal stem cells (MSCs). The concentration ranges selected for each drug and investigational agent were based upon clinically achievable concentrations if the clinical Cmax of the agent was known.
# Compounds. The drugs and investigational agents: abemaciclib (NSC768073), cobimetinib (NSC768068), divarasib (GDC6063, NSC841802), docetaxel (NSC628503), GDC-1971 (RLY-1971, NSC841576), gemcitabine (NSC613327), inavolisib (NSC800729), ipatasertib (NSC767898), KB-0742 (NSC834161), MRTX-1133 (NSC836407), osimertinib (NSC779217), RMC-4630 (NSC839698), RMC-6236 (NSC851965), RMC-6291 (NSC852671), Ro-3306 (NSC812927), sapanisertib (NSC764658), SN-38 (NSC673596), staurosporine (NSC755774), SY5609 (NSC837396), and tovorafenib (DAY101, NSC766906), were obtained from the National Cancer Institute (NCI) Developmental Therapeutics Program Chemical Repository. The FDA-approved anticancer drug set is available from the NCI Developmental Therapeutics Program. […] The stock solutions were prepared in dimethyl sulfoxide (DMSO, Sigma-Aldrich, St. Louis, MO, cat. D2650) at 800-fold the tested concentration and stored at -70 degrees C prior to their use. All drugs and investigational agents were tested over a range starting from a high concentration at or near the clinical Cmax and decreasing in half-log increments. If the clinical Cmax for an agent had not been determined, the highest concentration tested was 10 microM.
# Cell Culture. All cells were maintained in an incubator at 37 degrees C and 5% CO2 with 95% humidity. The PDC lines were cultured according to standard operating procedures established by the NCI PDMR. All PDCs were thawed and cultured in Matrigel-coated flasks prepared with a working solution of 1X Ham's F-12 nutrient mix, without supplementation (Invitrogen, Waltham, MA, cat. 11765054), 100 U/mL penicillin-streptomycin (Invitrogen, cat. 15140122), and 2.5% Matrigel (Corning Inc., Corning, NY, cat. 354248) for the first three passages. The 362531-283-R-J2-PDC and 782815-120-R-J1-PDC lines were cultured in 6C/Colon 1B media, which includes advanced DMEM/F-12 (Thermo Fisher Scientific, cat. 12634028), 10 mM HEPES (Thermo Fisher Scientific, cat. 15630080), 1X GlutaMAX supplement (Thermo Fisher Scientific, cat. 35050061), 0.1 mg/mL primocin (InvivoGen, San Diego, CA, cat. ant-pm-2), 10% defined fetal bovine serum, heat inactivated (HyClone Laboratories Inc., Logan, UT, cat. SH30070.03HI), 50% L-WRN conditioned media (ATCC, cat. CRL-3276), 1.25 mM N-Acetyl-L-cysteine (Sigma-Aldrich, cat. A9165), 10 mM nicotinamide (Sigma-Aldrich, cat. N0636), 1X B-27 supplement (Thermo Fisher Scientific, cat. 17504044), 1X N-2 supplement (Thermo Fisher Scientific, cat. 17502048), 50 ng/mL human EGF (Thermo Fisher Scientific, cat. PHG0311), and 10 microM Y-27632 dihydrochloride (Tocris Bioscience, cat. 1254). The K12877-001-R-J1-PDC line was cultured in 6I media, which includes all 6C/Colon 1B media plus 10 ng/mL human FGF-10 (PeproTech, cat. 100-26), 1 ng/mL human FGF-2 (PeproTech, cat. 100-18B), 1 µM prostaglandin E2 (Tocris Bioscience, cat. 2296), […] hydrocortisone (Sigma-Aldrich, cat. H4001), and […] bovine insulin (Sigma-Aldrich, cat. I6634). The K86415-001-R-J1-PDC line was cultured in 6D media, which includes all 6C/Colon 1B media components minus the L-WRN conditioned media. The 485176-168-R4-J1-PDC was cultured in PANC media, which includes all 6C/Colon 1B media plus 100 ng/mL human FGF-10 (PeproTech, cat. 100-26), 500 nM SB-431542 (Selleckchem, cat. S1067), and 10 nM gastrin (Tocris Bioscience, cat. 3006). […]
# [1] = second compound 0.0316 µM, first compound 0.00316 µM
# [2] = second compound 0.0316 µM, first compound 0.01 µM
# [3] = second compound 0.0316 µM, first compound 0.0316 µM
# [4] = second compound 0.0316 µM, first compound 0.1 µM
# [5] = second compound 0.0316 µM, first compound 0.316 µM
# [6] = second compound 0.0316 µM, first compound 1 µM
# [7] = second compound 0.1 µM, first compound 0.00316 µM
# [8] = second compound 0.1 µM, first compound 0.01 µM
# [9] = second compound 0.1 µM, first compound 0.0316 µM
# [10] = second compound 0.1 µM, first compound 0.1 µM
# [11] = second compound 0.1 µM, first compound 0.316 µM
# [12] = second compound 0.1 µM, first compound 1 µM
# [13] = second compound 0.316 µM, first compound 0.00316 µM
# [14] = second compound 0.316 µM, first compound 0.01 µM
# [15] = second compound 0.316 µM, first compound 0.0316 µM
# [16] = second compound 0.316 µM, first compound 0.1 µM
# [17] = second compound 0.316 µM, first compound 0.316 µM
# [18] = second compound 0.316 µM, first compound 1 µM
# [19] = second compound 1 µM, first compound 0.00316 µM
# [20] = second compound 1 µM, first compound 0.01 µM
# [21] = second compound 1 µM, first compound 0.0316 µM
# [22] = second compound 1 µM, first compound 0.1 µM
# [23] = second compound 1 µM, first compound 0.316 µM
# [24] = second compound 1 µM, first compound 1 µM
# [25] = second compound 3.16 µM, first compound 0.00316 µM
# [26] = second compound 3.16 µM, first compound 0.01 µM
# [27] = second compound 3.16 µM, first compound 0.0316 µM
# [28] = second compound 3.16 µM, first compound 0.1 µM
# [29] = second compound 3.16 µM, first compound 0.316 µM
# [30] = second compound 3.16 µM, first compound 1 µM
# [31] = second compound 10 µM, first compound 0.00316 µM
# [32] = second compound 10 µM, first compound 0.01 µM
# [33] = second compound 10 µM, first compound 0.0316 µM
# [34] = second compound 10 µM, first compound 0.1 µM
# [35] = second compound 10 µM, first compound 0.316 µM
# [36] = second compound 10 µM, first compound 1 µM
# 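Further: spheroids exposed to agents for one week before readout.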
# 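Wherever viability, T/C is given: percent viability relative to DMSO vehicle control wells as 100%.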
compound,measurement,setting,value
C=CC(=O)Nc1cc(Nc2nccc(-c3cn(C)c4ccccc34)n2)c(OC)cc1N(C)CCN(C)C + C#Cc1c(F)ccc2cc(O)cc(-c3ncc4c(N5CC6CCC(C5)N6)nc(OCC56CCCN5CC(F)C6)nc4c3F)c12,IC50,second compound 0.0316 µM,> 1000 nM
same,IC50,second compound 0.1 µM,> 1000 nM
same,IC50,second compound 0.316 µM,> 1000 nM
same,IC50,second compound 1 µM,> 1000 nM
same,IC50,second compound 3.16 µM,> 1000 nM
same,IC50,second compound 10 µM,> 1000 nM
same,"viability, T/C",[1],107%
same,"viability, T/C",[2],96%
same,"viability, T/C",[3],101%
same,"viability, T/C",[4],96.3%
same,"viability, T/C",[5],94.2%
same,"viability, T/C",[6],94%
same,"viability, T/C",[7],94.8%
same,"viability, T/C",[8],103%
same,"viability, T/C",[9],99.8%
same,"viability, T/C",[10],110%
same,"viability, T/C",[11],90.4%
same,"viability, T/C",[12],88.8%
same,"viability, T/C",[13],108%
same,"viability, T/C",[14],92.6%
same,"viability, T/C",[15],114%
same,"viability, T/C",[16],105%
same,"viability, T/C",[17],105%
same,"viability, T/C",[18],87.2%
same,"viability, T/C",[19],102%
same,"viability, T/C",[20],93.1%
same,"viability, T/C",[21],97%
same,"viability, T/C",[22],106%
same,"viability, T/C",[23],97.9%
same,"viability, T/C",[24],82.8%
same,"viability, T/C",[25],108%
same,"viability, T/C",[26],107%
same,"viability, T/C",[27],129%
same,"viability, T/C",[28],101%
same,"viability, T/C",[29],114%
same,"viability, T/C",[30],106%
same,"viability, T/C",[31],97.5%
same,"viability, T/C",[32],109%
same,"viability, T/C",[33],108%
same,"viability, T/C",[34],118%
same,"viability, T/C",[35],91.3%
same,"viability, T/C",[36],115%
CC(Nc1ccc2c(c1)OCCn1cc(N3C(=O)OCC3C(F)F)nc1-2)C(N)=O (stereo unspecified) + C#Cc1c(F)ccc2cc(O)cc(-c3ncc4c(N5CC6CCC(C5)N6)nc(OCC56CCCN5CC(F)C6)nc4c3F)c12,IC50,second compound 0.0316 µM,> 10000 nM
same,IC50,second compound 0.1 µM,> 10000 nM
same,IC50,second compound 0.316 µM,> 10000 nM
same,IC50,second compound 1 µM,> 10000 nM
same,IC50,second compound 3.16 µM,> 10000 nM
same,IC50,second compound 10 µM,> 10000 nM
same,"viability, T/C",[3],108%
same,"viability, T/C",[4],106%
same,"viability, T/C",[5],100%
same,"viability, T/C",[6],95.5%
same,"viability, T/C","second compound 0.0316 µM, first compound 3.16 µM",107%
same,"viability, T/C","second compound 0.0316 µM, first compound 10 µM",86.8%
same,"viability, T/C",[9],104%
same,"viability, T/C",[10],110%
same,"viability, T/C",[11],101%
same,"viability, T/C",[12],112%
same,"viability, T/C","second compound 0.1 µM, first compound 3.16 µM",111%
same,"viability, T/C","second compound 0.1 µM, first compound 10 µM",86.9%
same,"viability, T/C",[15],110%
same,"viability, T/C",[16],102%
same,"viability, T/C",[17],91.6%
same,"viability, T/C",[18],95.3%
same,"viability, T/C","second compound 0.316 µM, first compound 3.16 µM",94.8%
same,"viability, T/C","second compound 0.316 µM, first compound 10 µM",77.3%
same,"viability, T/C",[21],109%
same,"viability, T/C",[22],109%
same,"viability, T/C",[23],121%
same,"viability, T/C",[24],113%
same,"viability, T/C","second compound 1 µM, first compound 3.16 µM",115%
same,"viability, T/C","second compound 1 µM, first compound 10 µM",81.2%
same,"viability, T/C",[27],104%
same,"viability, T/C",[28],95%
same,"viability, T/C",[29],115%
same,"viability, T/C",[30],91.6%
same,"viability, T/C","second compound 3.16 µM, first compound 3.16 µM",97%
same,"viability, T/C","second compound 3.16 µM, first compound 10 µM",83.1%
same,"viability, T/C",[33],98.9%
same,"viability, T/C",[34],113%
same,"viability, T/C",[35],119%
same,"viability, T/C",[36],104%
same,"viability, T/C","second compound 10 µM, first compound 3.16 µM",95.9%
same,"viability, T/C","second compound 10 µM, first compound 10 µM",90.7%
O=C(c1ccc(F)c(F)c1Nc1ccc(I)cc1F)N1CC(O)([C@@H]2CCCCN2)C1 + C#Cc1c(F)ccc2cc(O)cc(-c3ncc4c(N5CC6CCC(C5)N6)nc(OCC56CCCN5CC(F)C6)nc4c3F)c12,IC50,second compound 0.0316 µM,397 nM
same,IC50,second compound 0.1 µM,376 nM
same,IC50,second compound 0.316 µM,395 nM
same,IC50,second compound 1 µM,409 nM
same,IC50,second compound 3.16 µM,404 nM
same,IC50,second compound 10 µM,522 nM
same,"viability, T/C",[1],87%
same,"viability, T/C",[2],68.4%
same,"viability, T/C",[3],78%
same,"viability, T/C",[4],66.3%
same,"viability, T/C",[5],55.5%
same,"viability, T/C",[6],31.8%
same,"viability, T/C",[7],96.2%
same,"viability, T/C",[8],73.7%
same,"viability, T/C",[9],61.7%
same,"viability, T/C",[10],66.3%
same,"viability, T/C",[11],64.5%
same,"viability, T/C",[12],33.3%
same,"viability, T/C",[13],76%
same,"viability, T/C",[14],70.3%
same,"viability, T/C",[15],73%
same,"viability, T/C",[16],60.8%
same,"viability, T/C",[17],56.4%
same,"viability, T/C",[18],33.3%
same,"viability, T/C",[19],74.5%
same,"viability, T/C",[20],74.4%
same,"viability, T/C",[21],65%
same,"viability, T/C",[22],65.2%
same,"viability, T/C",[23],56.6%
same,"viability, T/C",[24],32.8%
same,"viability, T/C",[25],78.6%
same,"viability, T/C",[26],72.9%
same,"viability, T/C",[27],70.7%
same,"viability, T/C",[28],64.4%
same,"viability, T/C",[29],54.2%
same,"viability, T/C",[30],36.3%
same,"viability, T/C",[31],77.7%
same,"viability, T/C",[32],69.8%
same,"viability, T/C",[33],71.2%
same,"viability, T/C",[34],66%
same,"viability, T/C",[35],59.4%
same,"viability, T/C",[36],39.3%
